Values joined by “and” are separate entries in the source; they are usually repeats but may differ in a detail not shown here. Equal entries are not always repeated. “Also recorded” adds a separate entry of the source.
Assays:
[1] = test system: NSC-34 cells expressing EGFP-WT-SOD1; assay: Determination of cells containing inclusions; assay type: cell-based, mouse; parameters: Inclusion Formation: unit not given here; details: for Inclusion Formation: WT, 48 h, replicates
Method: (§1) Transfected NSC-34 cells were plated out into 96-well plates and left overnight. […] Cells were then fixed using 4% (w/v) paraformaldehyde in 1×PBS for 20 min. Plates for imaging were then processed as previously described with some changes. Cells were imaged using a DMi8 epifluorescent microscope (Leica, Germany) fitted with a Mercury Arc Lamp, a 10× 0.25NA (CAT NO) air objective and an automated stage. A software-based autofocus strategy was utilized to focus on the GFP signal within cells, with a subsequent image being taken in the DAPI channel to view Hoescht-stained nuclei. Relative focus correction was applied between channels to offset emission wavelength effects to the focal plane. Following image acquisition, images were corrected for illumination variation via a background method and processed using a combination of FIJI [66], StarDist, CellProfiler, and CellProfiler Analyst as previously described.

[2] = test system: NSC-34 cells expressing EGFP-G93A; assay: Determination of cells containing inclusions; assay type: cell-based, mouse; parameters: Inclusion Formation: unit not given here; details: for Inclusion Formation: G93A, 48 h, replicates
Method: as §1

[3] = test system: wild-type SOD1, SOD1^A4V, SOD1^G93A, SOD1^H46R, and SOD1^G85R; assay: Mass spectrometry assay for intact protein cross-linking in vitro; assay type: binding, human
Method: We employed a mass spectrometry (MS) assay for intact protein cross-linking. In this assay, any non-covalent (i.e., native) dimer is dissociated by a combination of acidic, organic media and MS source conditions.
Wild-type SOD1, SOD1^A4V, SOD1^G93A, SOD1^H46R, and SOD1^G85R stock solutions were diluted to 40 μm in 10 mM ammonium acetate (pH 7.4). […] Prior to infusion, samples were diluted to 1 μm in 50:50 acetonitrile:water, with 0.1% formic acid. During analysis, 32 scans were acquired in positive mode and averaged. Funnel 1 and skimmer 1 were kept around 150 V and 20 V, respectively, and funnel RF amplitude was held at 60.0 Vpp.

[4] = target: T1, EGFP-labeled SOD1 (wild-type, fALS variants, Cys111Ser, F50E/G51E) (Homo sapiens, UniProt P00441, C112S); assay: Immunoblotting for SOD1-EGFP cross-linking in NSC-34 cells; assay type: cell-based, mouse NSC-34 cells; details: 20 μm S-XL6
T1 construct: expressed in transfected cells; host or cells: NSC-34 mouse neuroblastoma/motor neuron hybrid cells
T1 sequence (P00441 2-154 C112S): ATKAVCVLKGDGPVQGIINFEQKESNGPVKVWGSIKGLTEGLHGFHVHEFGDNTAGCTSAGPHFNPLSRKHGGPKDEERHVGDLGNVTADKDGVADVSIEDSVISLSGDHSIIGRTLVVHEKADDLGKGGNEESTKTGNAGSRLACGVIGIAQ
Method: Mouse neuroblastoma/motor neuron hybrid cells (NSC-34) were cultured and maintained as previously described. Briefly, NSC-34 cells were cultured in Dulbecco’s Modified Eagle’s Medium with F12 supplement (DMEM/F12, Invitrogen Australia) containing 10% (v/v) heat-inactivated fetal bovine serum (FBS, Bovogen Biologicals, Australia) and 2 mM L-Glutamine (Invitrogen, Australia). Cells were passaged using 0.25% trypsin, 0.02% EDTA (Invitrogen, Australia). Cells were maintained within humidified incubators at 37°C with 5% CO2.
To transfect NSC-34 cells, they were first plated out to 40% confluency in either 6-well or 12-well tissue culture-treated plates and cultured for 24 h. Following this, TransIT-X2 reagent (Mirus Bio, USA) was used according to the manufacturer’s instructions to transfect NSC-34’s (1 μg DNA per well for 12-well plates, 2.5 μg per well for a 6-well plate). Cells were then incubated for 8 h prior to replating for experiments into other plates or chambers.
Transfected NSC-34 cells were plated out into 12-well plates and left overnight. […] Cells were then harvested via aspiration and pelleted (300 × g). Lysis and immunoblots were carried out as previously described. Briefly, cell pellets were lysed in ice-cold lysis buffer containing protease inhibitors (Thermo Fisher, USA) and N-ethylmaleimide (NEM) at a final concentration of 1 mg/mL. Protein concentration was measured by DC assay (BioRad, Australia) and samples were denatured in SDS-sample buffer containing 40 mM NEM at 90°C for 5 min. Lysates were loaded into 26-lane stain-free gels (BioRad, Australia) and electrophoresed. Proteins were transferred to 0.2 μm PVDF membranes for 1 h at 4°C. Membranes were blocked in 5% skim milk in TBST for 1 h prior to addition to primary antibody which as a rabbit anti-GFP antibody (ab290, 1:5,000, Abcam USA) and incubated overnight at 4°C. Membranes were washed 3× and then incubated for 1 h at room temperature in secondary antibody (goat anti-rabbit HRP conjugate at 1:5,000 (catalog no.: P0448; Dako). Membranes were then washed 3× prior to developing with SuperSignal West Pico Plus substrate (Thermo Fisher Scientific).

[5] = test system: alpha 1-acid glycoprotein; assay type: in vitro ADME
C57BL/6 mice = assay: in vivo; details: mouse
Method: (§2) Any clinical abnormalities including but not limited to ruffled fur, unstable gait, severe lethargy, and mortality was observed after dosing. The post-dose washout period was maintained for 48 h for both PO, IV, and SC route of administration.

in vivo = details: C57BL/6, mouse
Method: as §2

[O-][S+]1CCCCS1 (stereo not drawn) [S-XL6, 1,2-dithiane-1-oxide]
aggregation of EGFP-labeled wild-type SOD1 [1]: increased cellular aggregation; also recorded: accelerate the aggregation
Inclusion Formation ([1]; 5 uM): 0.4215 and 0.8811 and 2.367 and 0.4188 and 0.4044
Inclusion Formation ([1]; 10 uM): 0.8155 and 1.677 and 1.595 and 4.094 and 2.381
Inclusion Formation ([1]; 20 uM): 9.589 and 4.535 and 7.818 and 6.78 and 6.154
aggregation of EGFP-labeled G93A [2]: did not affect
Inclusion Formation ([2]; 5 uM): 5.34 and 6.771 and 14.6572 and 11.1111 and 8.602
Inclusion Formation ([2]; 10 uM): 6.731 and 9.113 and 13.3487 and 16.0367 and 12.7358
Inclusion Formation ([2]; 20 uM): 8.219 and 11.7978 and 11.4911 and 10.411 and 12.1547
dead-end modifications of SOD1 [3]: not observed
conversion of SOD1 monomer to cross-linked dimer ([3]; denaturing MS conditions): full conversion of monomer to dimer
cross-linking of the Cys111Ser variant [4]: lack of cross-linking
binding to purified protein [5]: not bound
mortality in up-down study (C57BL/6 mice; iv, 55 mg/kg): One mouse died
mortality in up-down study (C57BL/6 mice; iv, 60 mg/kg): another mouse died
mortality in up-down study (C57BL/6 mice; sc, 60 mg/kg): one mouse died
LD50 at 48 h (in vivo; iv): 75 mg/kg
LD50 at 48 h (in vivo; po): 1000 mg/kg
LD50 at 48 h (in vivo; sc): 275 mg/kg

From PMC10826971, “Evaluating protein cross-linking as a therapeutic strategy to stabilize SOD1 variants in a mouse model of familial ALS” (PLOS Biology, 2024)
